The test system of the assay is G9A methyltransferase. Put plainly: Radiolabel in vitro methylation assay of H1.0 peptide (autoradiography). The format is biochemical. Conditions: 10U G9A, S-[Methyl-3H] SAM, 37° C. 1 hour. Here is the method:
In order to visualize methylation of H1.0 peptide by G9A methyltransferase in vitro, a methylation assay was performed incorporating a radiolabelled methyl donor, which allows for visualization of methylated peptide on a gel after autoradiography exposure. The following methylation reaction was set up in a 1.5 ml tube: 1×HMT reaction buffer (50 mM Tris-HCl, 5 mM MgCl2, 4 mM dithiothreitol, pH 9.0), 10U G9A Methyltransferase (NEB, M0235S, Lot #0031201), 3.2 mM Adenosyl-L-Methionine, S-[Methyl-3H] (Perkin Elmer, NET155H, Lot #1664720), 10 μg H1.0 peptide (ThermoFisher Scientific, Biotin-[…] (SEQ ID NO:69)), final volume 10 μl. A control reaction as above but without H1.0 peptide was also created. Reactions were incubated in a thermocycler at 37° C. for 1 hour. Reactions were stopped by incubating on ice for 5 minutes, and subsequently resolved on a 16.5% Tricine gel (BioRad, 4563063). Gels were soaked in 30% methanol, 5% glycerol for 30 minutes before vacuum drying at RT for 24 hours. Autoradiography analysis of dried gels with a phosphoimager (Molecular Dynamics) was then performed to assess effective methylation of H1.0 peptide with methyl-3H groups by the G9A methyltransferase. (Example 1, FIG. 8A)
The methylation reaction was subsequently resolved on a gel and visualized via autoradiography. […] A control reaction lacking H1.0 peptide yielded no tritium-labeled products.

The values below come from patent US10921324B2, “Compositions and methods related to the methylation of histone H1.0 protein” (Aelan Cell Technologies, Inc., priority 2016, dated 2021).

Ends that are not written are not given here.

G9A methyltransferase, sequence (Q9Z148 969-1263 limits assumed): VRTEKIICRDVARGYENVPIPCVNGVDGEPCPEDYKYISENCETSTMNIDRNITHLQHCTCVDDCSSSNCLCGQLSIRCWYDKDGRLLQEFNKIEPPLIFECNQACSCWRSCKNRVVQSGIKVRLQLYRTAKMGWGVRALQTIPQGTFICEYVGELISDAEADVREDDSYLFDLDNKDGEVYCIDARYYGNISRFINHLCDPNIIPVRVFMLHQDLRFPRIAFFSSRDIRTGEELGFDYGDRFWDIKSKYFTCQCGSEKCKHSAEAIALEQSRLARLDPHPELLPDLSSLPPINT

Turning to “AKPVKASKPKKAKPVKPK (not fully specified (N-terminus); listed as Homo sapiens) [unmethylated H1.0 peptide, unmodified H1.0 peptide substrate for in vitro methylation]”, the “methylation of H1.0 peptide by G9A (tritium-labeled methyl groups, band at 4 kDa)” value is “capable of methylating an H1.0 peptide”.
